Experimental data from patent US10538495B2, “Modulators of indoleamine 2,3-dioxygenase” (GLAXOSMITHKLINE INTELLECTUAL PROPERTY DEVELOPMENT LIMITED, priority 2016, dated 2020).
Read-outs that look alike come from different tables or passages of the source.

Legend:
[1] = biological target: T1, indoleamine 2,3-dioxygenase (IDO1) (Homo sapiens, UniProt P14902); assay: PBMC IDOi assay (kynurenine by mass spectrometry); assay type: cell-based; conditions: IFN-γ and LPS stimulated human PBMC, 2 days, kynurenine detected by mass spectrometry; read-out: PBMC pIC50 (converted)
T1 sequence (P14902 whole entry): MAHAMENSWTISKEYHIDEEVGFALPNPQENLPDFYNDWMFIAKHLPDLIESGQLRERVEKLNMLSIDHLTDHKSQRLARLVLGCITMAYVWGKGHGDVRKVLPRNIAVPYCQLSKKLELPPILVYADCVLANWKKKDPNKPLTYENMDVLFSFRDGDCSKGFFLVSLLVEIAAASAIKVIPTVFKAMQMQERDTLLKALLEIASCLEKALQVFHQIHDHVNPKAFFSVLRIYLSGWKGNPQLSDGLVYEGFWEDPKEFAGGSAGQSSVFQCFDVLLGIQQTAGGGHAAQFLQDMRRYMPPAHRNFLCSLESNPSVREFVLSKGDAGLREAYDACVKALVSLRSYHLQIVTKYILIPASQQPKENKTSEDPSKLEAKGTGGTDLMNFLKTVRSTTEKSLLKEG
Method: (§1) Brief descriptions of the cellular assays are provided following the table.
(§2) Compounds of the present invention were tested via high-throughput cellular assays utilizing detection of kynurenine via mass spectrometry and cytotoxicity as end-points. For the mass spectrometry and cytotoxicity assays, human peripheral blood mononuclear cells (PBMC) (PB003F; AllCells®, Alameda, Calif.) were stimulated with human interferon-γ (IFN-γ) (Sigma-Aldrich Corporation, St. Louis, Mo.) and lipopolysaccharide from Salmonella minnesota (LPS) (Invivogen, San Diego, Calif.) to induce the expression of indoleamine 2,3-dioxygenase (IDO1). Compounds with IDO1 inhibitory properties decreased the amount of kynurenine produced by the cells via the tryptophan catabolic pathway. Cellular toxicity due to the effect of compound treatment was measured using CellTiter-Glo® reagent (CTG) (Promega Corporation, Madison, Wis.), which is based on luminescent detection of ATP, an indicator of metabolically active cells.
(§3) In preparation for the assays, test compounds were serially diluted 3-fold in DMSO from a typical top concentration of 5 mM and plated at 0.5 μL in 384-well, polystyrene, clear bottom, tissue culture treated plates with lids (Greiner Bio-One, Kremsmünster, Austria) to generate 11-point dose response curves. Low control wells (0% kynurenine or 100% cytotoxicity) contained either 0.5 μL of DMSO in the presence of unstimulated (−IFN-γ/−LPS) PBMCs for the mass spectrometry assay or 0.5 μL of DMSO in the absence of cells for the cytotoxicity assay, and high control wells (100% kynurenine or 0% cytotoxicity) contained 0.5 μL of DMSO in the presence of stimulated (+IFN-γ/+LPS) PBMCs for both the mass spectrometry and cytotoxicity assays.
Frozen stocks of PBMCs were washed and recovered in RPMI 1640 medium (Thermo Fisher Scientific, Inc., Waltham, Mass.) supplemented with 10% v/v heat-inactivated fetal bovine serum (FBS) (Thermo Fisher Scientific, Inc., Waltham, Mass.), and 1× penicillin-streptomycin antibiotic solution (Thermo Fisher Scientific, Inc., Waltham, Mass.). The cells were diluted to 1,000,000 cells/mL in the supplemented RPMI 1640 medium. 50 μL of either the cell suspension, for the mass spectrometry assay, or medium alone, for the cytotoxicity assay, were added to the low control wells, on the previously prepared 384-well compound plates, resulting in 50,000 cells/well or 0 cells/well respectively. IFN-γ and LPS were added to the remaining cell suspension at final concentrations of 100 ng/ml and 50 ng/ml respectively, and 50 μL of the stimulated cells were added to all remaining wells on the 384-well compound plates. The plates, with lids, were then placed in a 37° C., 5% CO2 humidified incubator for 2 days.
Following incubation, the 384-well plates were removed from the incubator and allowed to equilibrate to room temperature for 30 minutes. For the cytotoxicity assay, CellTiter-Glo® was prepared according to the manufacturer's instructions, and 40 μL were added to each plate well. After a twenty minute incubation at room temperature, luminescence was read on an EnVision® Multilabel Reader (PerkinElmer Inc., Waltham, Mass.). For the mass spectrometry assay, 10 μL of supernatant from each well of the compound-treated plates were added to 40 μL of acetonitrile, containing 10 μM of an internal standard for normalization, in 384-well, polypropylene, V-bottom plates (Greiner Bio-One, Kremsmünster, Austria) to extract the organic analytes. Following centrifugation at 2000 rpm for 10 minutes, 10 μL from each well of the acetonitrile extraction plates were added to 90 μL of sterile, distilled H2O in 384-well, polypropylene, V-bottom plates for analysis of kynurenine and the internal standard on the RapidFire 300 (Agilent Technologies, Santa Clara, Calif.) and 4000 QTRAP MS (SCIEX, Framingham, Mass.). […]

[2] = biological target: T1, indoleamine 2,3-dioxygenase (IDO1); assay: HeLa IDOi assay (kynurenine by mass spectrometry); assay type: cell-based; parameters: human epithelial HeLa cells (CCL-2; host or cells: HeLa cells stimulated with human IFN-γ; conditions: IFN-γ stimulated HeLa cells, 2 days, kynurenine detected by mass spectrometry; read-out: HeLa pIC50 (converted)
Method: as §1
as §2, with “epithelial HeLa” for “peripheral blood mononuclear”, “(CCL-2; ATCC®, Manassas, Va.)” for “(PBMC) (PB003F; AllCells®, Alameda, Calif.)”, “Mo.)” for “Mo.) and lipopolysaccharide from Salmonella minnesota (LPS) (Invivogen, San Diego, Calif.)”
as §3, with “(−IFN-γ) HeLa cells” for “(−IFN-γ/−LPS) PBMCs”, “(+IFN-γ) HeLa cells” for “(+IFN-γ/+LPS) PBMCs”
Frozen stocks of HeLa cells were washed and recovered in DMEM high glucose medium with HEPES (Thermo Fisher Scientific, Inc., Waltham, Mass.) supplemented with 10% v/v certified fetal bovine serum (FBS) (Thermo Fisher Scientific, Inc., Waltham, Mass.), and 1× penicillin-streptomycin antibiotic solution (Thermo Fisher Scientific, Inc., Waltham, Mass.). The cells were diluted to 100,000 cells/mL in the supplemented DMEM medium. 50 μL of either the cell suspension, for the mass spectrometry assay, or medium alone, for the cytotoxicity assay, were added to the low control wells, on the previously prepared 384-well compound plates, resulting in 5,000 cells/well or 0 cells/well respectively. IFN-γ was added to the remaining cell suspension at a final concentration of 10 nM, and 50 μL of the stimulated cells were added to all remaining wells on the 384-well compound plates. The plates, with lids, were then placed in a 37° C., 5% CO2 humidified incubator for 2 days.
Following incubation, the 384-well plates were removed from the incubator and allowed to equilibrate to room temperature for 30 minutes. For the cytotoxicity assay, CellTiter-Glo® was prepared according to the manufacturer's instructions, and 10 μL were added to each plate well. After a twenty minute incubation at room temperature, luminescence was read on an EnVision® Multilabel Reader (PerkinElmer Inc., Waltham, Mass.). For the mass spectrometry assay, 10 μL of supernatant from each well of the compound-treated plates were added to 40 μL of acetonitrile, containing 10 μM of an internal standard for normalization, in 384-well, polypropylene, V-bottom plates (Greiner Bio-One, Kremsmünster, Austria) to extract the organic analytes. Following centrifugation at 2000 rpm for 10 minutes, 10 μL from each well of the acetonitrile extraction plates were added to 90 μL of sterile, distilled H2O in 384-well, polypropylene, V-bottom plates for analysis of kynurenine and the internal standard on the RapidFire 300 (Agilent Technologies, Santa Clara, Calif.) and 4000 QTRAP MS (SCIEX, Framingham, Mass.). MS data were integrated using Agilent Technologies' RapidFire Integrator software, and data were normalized for analysis as a ratio of kynurenine to the internal standard. […]

[3] = tested on: conversion of T cells into CD4+FoxP3+ Tregs; conditions: co-culture of DCs and naïve CD4+CD25− T cells; cited from earlier work
PAN02 pancreatic cells = conditions: orally dosed, cited from earlier work

| Compound | IC50 [1] | IC50 [2] | conversion of T cells into CD4+FoxP3+ Tregs [3] | inhibition of tumor growth (PAN02 pancreatic cells; PAN02 syngeneic model, immunocompetent mice) | inhibition of tumor growth (PAN02 pancreatic cells; same tumor implanted in immune-deficient mice) |
| --- | --- | --- | --- | --- | --- |
| Cc1cc(C)c(CC(=O)Nc2cc(-c3ccccc3-c3nn[nH]n3)ccc2SC(C)(C)C)c(C)c1 [Example 39, N-(4-(tert-butylthio)-2′-(2H-tetrazol-5-yl)-[1,1′-biphenyl]-3-yl)-2-mesitylacetamide] | 1.58 nM | 2.51 nM |  |  |  |
| CC(C)(C)Sc1ccc(-c2ccccc2-c2nn[nH]n2)cc1NC(=O)Cc1ccc(Br)cc1 [Example 40, 2-(4-Bromophenyl)-N-(4-(tert-butylthio)-2′-(2H-tetrazol-5-yl)-[1,1′-biphenyl]-3-yl)acetamide] | 20 nM | 31.6 nM |  |  |  |
| CC(C)(C)Sc1ccc(-c2ccccc2-c2nn[nH]n2)cc1Nc1nc(C(F)(F)F)ns1 [Example 43, N-(4-(tert-butylthio)-2′-(2H-tetrazol-5-yl)-[1,1′-biphenyl]-3-yl)-3-(trifluoromethyl)-1,2,4-thiadiazol-5-amine] | 12.6 nM | 50.1 nM |  |  |  |
| Cc1ccc(CC(=O)Nc2cc(-c3ccccc3C#N)ccc2SC(C)(C)C)cc1 [Example 46, N-(4-(tert-butylthio)-2′-cyano-[1,1′-biphenyl]-3-yl)-2-(p-tolyl)acetamide] | 5010 nM | 6310 nM |  |  |  |
| Cc1ccc(CC(=O)Nc2cc(-c3ccccc3C(N)=O)ccc2SC(C)(C)C)cc1 [Example 47, 4′-(tert-Butylthio)-3′-(2-(p-tolyl)acetamido)-[1,1′-biphenyl]-2-carboxamide] | 501 nM | 501 nM |  |  |  |
| Cc1ccc(CC(=O)Nc2cc(-c3ccccc3-c3nnn(COP(=O)(O)O)n3)ccc2SC(C)(C)C)cc1 [Example 51, (5-(4′-(tert-Butylthio)-3′-(2-(p-tolyl)acetamido)-[1,1′-biphenyl]-2-yl)-2H-tetrazol-2-yl)methyl Dihydrogen Phosphate] | 63.1 nM | 15.8 nM |  |  |  |
| Cc1ccc(CC(=O)Nc2cc(-c3ccccc3-c3nnnn3COP(=O)(O)O)ccc2SC(C)(C)C)cc1 [Example 52, (5-(4′-(tert-Butylthio)-3′-(2-(p-tolyl)acetamido)-[1,1′-biphenyl]-2-yl)-1H-tetrazol-1-yl)methyl Dihydrogen] | 158 nM | 25.1 nM |  |  |  |
| Cc1ccc(CC(=O)Nc2cc(-c3ccccc3-c3nnn(COC(=O)C(C)(C)C)n3)ccc2SC(C)(C)C)cc1 [Example 55, (5-(4′-(tert-Butylthio)-3′-(2-(p-tolyl)acetamido)-[1,1′-biphenyl]-2-yl)-2H-tetrazol-2-yl)methyl pivalate] | 50.1 nM | 31.6 nM |  |  |  |
| Cc1ccc(CC(=O)Nc2cc(-c3ccccc3-c3nnnn3COC(=O)C(C)(C)C)ccc2SC(C)(C)C)cc1 [Example 56, (5-(4′-(tert-butylthio)-3′-(2-(p-tolyl)acetamido)-[1,1′-biphenyl]-2-yl)-1H-tetrazol-1-yl)methyl Pivalate] | 20 nM | 31.6 nM |  |  |  |
| Cc1ccc(CC(=O)Nc2cc(-c3ccccc3-c3nnn[nH]3)cnc2SC(C)(C)C)cc1 [Example 64, N-(5-(2-(1H-tetrazol-5-yl)phenyl)-2-(tert-butylthio)pyridin-3-yl)-2-(p-tolyl)acetamide] | 50.1 nM | 63.1 nM |  |  |  |
| CC(C)(C)Sc1ncc(-c2ccccc2-c2nnn[nH]2)cc1NC(=O)Cc1ccc(C(F)(F)F)cc1 [Example 65, N-(5-(2-(1H-tetrazol-5-yl)phenyl)-2-(tert-butylthio)pyridin-3-yl)-2-(4-(trifluoromethyl)phenyl)acetamide] | 25.1 nM | 39.8 nM |  |  |  |
| Cc1ccc(CC(=O)Nc2cc(-c3ccccc3-c3nnn[nH]3)cnc2SC(C)(C)C)c(C)c1 [Example 66, N-(5-(2-(1H-tetrazol-5-yl)phenyl)-2-(tert-butylthio)pyridin-3-yl)-2-(2,4-dimethylphenyl)acetamide] | 7.94 nM | 10 nM |  |  |  |
| CC(C)(C)Sc1ncc(-c2ccccc2-c2nnn[nH]2)cc1NC(=O)Cc1ccccc1C(F)(F)F [Example 67, N-(5-(2-(1H-tetrazol-5-yl)phenyl)-2-(tert-butylthio)pyridin-3-yl)-2-(2-(trifluoromethyl)phenyl)acetamide] | 12.6 nM | 100 nM |  |  |  |
| NS(=O)(=O)NCCNc1nonc1C(=NO)Nc1ccc(F)c(Br)c1 [INCB204360] |  |  | blocked the conversion | significant dose-dependent inhibition of tumor growth | without effect |
